The values that follow are results of earlier work, collected in patent publication US20220031739A1, “ANTI-VIRAL COMPOSITIONS AND METHODS OF USE THEREOF” (Eye Therapies LLC, priority 2020, published 2022).

The test system of the data set is herpes simplex virus ("HSV").

Consider `O=c1[nH]c(=O)n([C@H]2C[C@H](O)[C@@H](CO)O2)cc1C(F)(F)F` [Trifluridine, trifluridine], for which, for the setting “likelihood especially high when used for long periods for deeper infections”, the toxicity entry is “causes toxicity of both virus and corneal cells”. Moreover, the “time to treat superficial HSV infections from the start of treatment” value (superficial HSV infections) was no more than 1 week.
